Eight compounds from patent publication US11076595B2, “1-(n,n-disubstituted carbamoyl) 4-(substituted sulfonyl)triazolin-5-one derivative, 4-(n,n-disubstituted carbamoyl) 1-(substituted sulfonyl)triazolin-5-one derivative, and herbicide containing said derivative as active ingredient” (HOKKO CHEMICAL INDUSTRY CO., LTD., priority 2017, dated 2021) can be followed below.

Common to all, as to assay type: in vivo
Assay [1] relates to Echinochloa crus-galli. Nature of the assay: Test Example 11: herbicidal effect test by soil treatment in paddy field. Conditions: 120 g/10a active ingredient, 14 days after treatment. The method, boiled down:
(§1)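 Weed suppression rate (%) was calculated as (1 − mean treated dry weight / mean untreated dry weight) × 100 at 14 days after treatment, two replicates per plot. Seeds were sown at 0–1 cm in flooded (about 3 cm) puddled paddy soil and treated immediately at 120 g active ingredient per 10 are.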

Assay [2] relates to Lindernia pyxidaria. The description is as above. Conditions: 120 g/10a active ingredient, 14 days after treatment. The method, boiled down: as §1
Assay [3] has as its system Monochoria vaginalis. The description is as above. The note with it: 120 g/10a active ingredient, 14 days after treatment. The gist of the method: as §1
For assay [4], the system named is Scirpus juncoides. The description is as above. Conditions: 120 g/10a active ingredient, 14 days after treatment. The gist of the method:
as §1

Assay [5] has as its system Echinochloa crus-galli. Put plainly: Test Example 12: herbicidal effect test by treatment during growing period in paddy field. The note with it: 120 g/10a; treatment seven days after sowing in flooded paddy pot; assessed 14 days after treatment. The method, boiled down:
(§2)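 Growing-period treatment in flooded paddy pots: the diluted emulsifiable concentrate was dripped in at 120 g a.i. per 10 are seven days after seeding. Inhibition is expressed as percent reduction in dry weight versus untreated pots, measured 14 days later in duplicate.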

Assay [6] deals with Lindernia pyxidaria. The assay is described as above. Conditions: 120 g/10a; treatment seven days after sowing in flooded paddy pot; assessed 14 days after treatment. The method, boiled down:
as §2

The subject of assay [7] is Monochoria vaginalis. Described as above. The note with it: 120 g/10a; treatment seven days after sowing in flooded paddy pot; assessed 14 days after treatment. The gist of the method:
as §2

In assay [8] the test system is Scirpus juncoides. Described as above. Conditions: 120 g/10a; treatment seven days after sowing in flooded paddy pot; assessed 14 days after treatment. The gist of the method:
as §2

In assay [9] the test system is Amaranthus viridis. Nature of the assay: Test Example 13: herbicidal effect test by soil treatment in upland field. Conditions: 120 g/10a, 14 days after treatment. The method, boiled down:
(§3)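 Suppression rate (%) is calculated from mean plant dry weight in treated versus untreated plots, 14 days after treatment, with duplicate plots per concentration. Seeds (20 per species) are mixed into the surface centimetre of alluvial soil, and the diluted emulsifiable concentrate is sprayed onto the soil the following day at 120 g a.i. per 10 are.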

Assay [10] has as its system Chenopodium album. Described as above. The note with it: 120 g/10a, 14 days after treatment. The gist of the method: as §3
For assay [11], the system named is Echinochloa crus-galli. Described as above. The note with it: 120 g/10a, 14 days after treatment. The gist of the method: as §3
Assay [12] deals with crabgrass. The assay is described as above. Conditions: 120 g/10a, 14 days after treatment. The method, boiled down: as §3
In assay [13] the test system is Chenopodium album. Put plainly: Test Example 14: herbicidal effect test by foliage treatment in upland field. The note with it: 7 days after sowing, 120 g/10a, 14 days after treatment. The gist of the method:
(§4)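 Post-sowing spray at day 7, 120 g a.i./10 are in 100 L water/10 are; alluvial soil pots, duplicate plots; endpoint day 14, % suppression from dry weight relative to untreated.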

The test system of assay [14] is crabgrass. The assay is described as above. Conditions: 7 days after sowing, 120 g/10a, 14 days after treatment. The method, boiled down:
as §4

For assay [15], the system named is Amaranthus viridis. Described as above. Conditions: 7 days after sowing, 120 g/10a, 14 days after treatment. The method, boiled down: as §4
Assay [16] has as its system Echinochloa crus-galli. Described as above. The note with it: 7 days after sowing, 120 g/10a, 14 days after treatment. The method, boiled down:
as §4

For `CC(C)N(C(=O)n1cnn(S(=O)(=O)C(C)C)c1=O)c1cccc(F)c1F` [Compound 11-58], the “Weed suppression rate (%) Echinochloa crus-galli” value in the assay on Echinochloa crus-galli [1] and with Echinochloa crus-galli [5] was 100% in each case. For the same compound, the “Weed suppression rate (%) Lindemia pyxidaria” value in the assay with Lindernia pyxidaria [2] and in the assay with Lindernia pyxidaria [6] was 100% each time. Moreover, the “Weed suppression rate (%) Monochoria vaginalis” value with Monochoria vaginalis [3] and with Monochoria vaginalis [7] was 100% throughout. Moreover, the “Weed suppression rate (%) Scirpus juncoides” value in the assay on Scirpus juncoides [4] and in the assay on Scirpus juncoides [8] was 100% throughout. The entries for the “herbicidal effect, Amaranthus viridis” value in the assay with Amaranthus viridis [9] and with Amaranthus viridis [15] were 70% and 30%, respectively. In addition, the “herbicidal effect, Chenopodium album” value in the assay with Chenopodium album [10] and in the assay with Chenopodium album [13] was 70% in each case. The results for the “herbicidal effect, Echinochloa crus-galli” value in the assay on Echinochloa crus-galli [11] and with Echinochloa crus-galli [16] were 100% and 90%, respectively. For the same compound, the “herbicidal effect, Crabgrass” value in the assay with crabgrass [12] worked out at 90%; in the assay on crabgrass [14], 100%.

Turning to `CC(C)N(C(=O)n1cnn(S(=O)(=O)C(C)C)c1=O)c1ccc(F)cc1F` [Compound 11-59], the “Weed suppression rate (%) Echinochloa crus-galli” value in the assay with Echinochloa crus-galli [1] and with Echinochloa crus-galli [5] was 100% in each case. The “Weed suppression rate (%) Lindemia pyxidaria” value is listed as 100% in the assay with Lindernia pyxidaria [2] and 80% in the assay with Lindernia pyxidaria [6]. The “Weed suppression rate (%) Monochoria vaginalis” value in the assay with Monochoria vaginalis [3] and in the assay with Monochoria vaginalis [7] was 100% in each case. Besides, the “Weed suppression rate (%) Scirpus juncoides” value was 100% in the assay with Scirpus juncoides [4] and 90% in the assay on Scirpus juncoides [8]. For the same compound, the “herbicidal effect, Amaranthus viridis” value in the assay on Amaranthus viridis [9] and with Amaranthus viridis [15] was 90% in each case. In addition, the “herbicidal effect, Chenopodium album” value is 100% in the assay on Chenopodium album [10] and 80% in the assay with Chenopodium album [13]. Further, the “herbicidal effect, Echinochloa crus-galli” value in the assay with Echinochloa crus-galli [11] is 100%; in the assay on Echinochloa crus-galli [16], 80%. Besides, the figures for the “herbicidal effect, Crabgrass” value in the assay with crabgrass [12] and in the assay with crabgrass [14] were 100% and 90%, respectively.

With `CC(C)N(C(=O)n1cnn(S(=O)(=O)C(C)C)c1=O)c1c(F)cccc1F` [Compound 11-61], the “Weed suppression rate (%) Echinochloa crus-galli” value in the assay with Echinochloa crus-galli [1] and with Echinochloa crus-galli [5] was 100% in each case. Besides, the “Weed suppression rate (%) Lindemia pyxidaria” value in the assay with Lindernia pyxidaria [2] and in the assay with Lindernia pyxidaria [6] was 100% in each case. Further, the “Weed suppression rate (%) Monochoria vaginalis” value in the assay on Monochoria vaginalis [3] stood at 80%; with Monochoria vaginalis [7], 100%. For the same compound, the “Weed suppression rate (%) Scirpus juncoides” value in the assay on Scirpus juncoides [4] was 100%; in the assay on Scirpus juncoides [8] it was 80%. In addition, the entries for the “herbicidal effect, Amaranthus viridis” value with Amaranthus viridis [9] and with Amaranthus viridis [15] were 90% and 70%, respectively. In addition, the “herbicidal effect, Chenopodium album” value was determined as 80% in the assay with Chenopodium album [10] and 70% with Chenopodium album [13]. Further, the “herbicidal effect, Echinochloa crus-galli” value with Echinochloa crus-galli [11] and in the assay with Echinochloa crus-galli [16] was 100% in each case. The “herbicidal effect, Crabgrass” value in the assay with crabgrass [12] and with crabgrass [14] was 100% throughout.

Take `CC(C)N(C(=O)n1cnn(S(=O)(=O)C(C)C)c1=O)c1ccc(F)c(F)c1F` [Compound 11-62]: the “Weed suppression rate (%) Echinochloa crus-galli” value in the assay on Echinochloa crus-galli [1] and with Echinochloa crus-galli [5] was 100% throughout. In addition, the entries for the “Weed suppression rate (%) Lindemia pyxidaria” value in the assay on Lindernia pyxidaria [2] and with Lindernia pyxidaria [6] were 100% and 80%, respectively. The “Weed suppression rate (%) Monochoria vaginalis” value with Monochoria vaginalis [3] came to 90%; in the assay with Monochoria vaginalis [7], 100%. The “Weed suppression rate (%) Scirpus juncoides” value in the assay on Scirpus juncoides [4] and with Scirpus juncoides [8] was 100% each time. Also, the “herbicidal effect, Amaranthus viridis” value in the assay with Amaranthus viridis [9] and in the assay on Amaranthus viridis [15] was 100% in each case. Besides, the results for the “herbicidal effect, Chenopodium album” value in the assay on Chenopodium album [10] and with Chenopodium album [13] were 60% and 90%, respectively. The entries for the “herbicidal effect, Echinochloa crus-galli” value with Echinochloa crus-galli [11] and in the assay with Echinochloa crus-galli [16] were 70% and 100%, respectively. For the same compound, the results for the “herbicidal effect, Crabgrass” value in the assay on crabgrass [12] and in the assay with crabgrass [14] were 70% and 100%, respectively.

For `CC(C)N(C(=O)n1cnn(S(=O)(=O)C(C)C)c1=O)c1c(F)cc(F)cc1F` [Compound 11-63], the “Weed suppression rate (%) Echinochloa crus-galli” value in the assay with Echinochloa crus-galli [1] and with Echinochloa crus-galli [5] was 100% throughout. The “Weed suppression rate (%) Lindemia pyxidaria” value in the assay with Lindernia pyxidaria [2] turned out to be 100%; in the assay on Lindernia pyxidaria [6], 80%. Further, the “Weed suppression rate (%) Monochoria vaginalis” value in the assay with Monochoria vaginalis [3] and with Monochoria vaginalis [7] was 100% throughout. Besides, the “Weed suppression rate (%) Scirpus juncoides” value in the assay with Scirpus juncoides [4] and in the assay on Scirpus juncoides [8] was 100% each time. The “herbicidal effect, Amaranthus viridis” value in the assay with Amaranthus viridis [9] stood at 90%; in the assay on Amaranthus viridis [15] it was 60%. In addition, the “herbicidal effect, Chenopodium album” value with Chenopodium album [10] worked out at 90%; with Chenopodium album [13] it was 70%. Also, the “herbicidal effect, Echinochloa crus-galli” value with Echinochloa crus-galli [11] and with Echinochloa crus-galli [16] was 100% throughout. Further, the “herbicidal effect, Crabgrass” value in the assay on crabgrass [12] and in the assay on crabgrass [14] was 100% in each case.

`CC(C)N(C(=O)n1cnn(S(=O)(=O)C(C)C)c1=O)c1c(F)c(F)cc(F)c1F` [Compound 11-64]: the “Weed suppression rate (%) Echinochloa crus-galli” value with Echinochloa crus-galli [1] and in the assay with Echinochloa crus-galli [5] was 100% in each case. For the same compound, the entries for the “Weed suppression rate (%) Lindemia pyxidaria” value in the assay on Lindernia pyxidaria [2] and with Lindernia pyxidaria [6] were 100% and 80%, respectively. Also, the “Weed suppression rate (%) Monochoria vaginalis” value in the assay with Monochoria vaginalis [3] and with Monochoria vaginalis [7] was 90% each time. Also, the “Weed suppression rate (%) Scirpus juncoides” value with Scirpus juncoides [4] and with Scirpus juncoides [8] was 100% in each case. The “herbicidal effect, Amaranthus viridis” value in the assay on Amaranthus viridis [9] and with Amaranthus viridis [15] was 60% each time. The “herbicidal effect, Chenopodium album” value with Chenopodium album [10] and in the assay on Chenopodium album [13] was 60% in each case. In addition, the “herbicidal effect, Echinochloa crus-galli” value with Echinochloa crus-galli [11] was found to be 100%; in the assay on Echinochloa crus-galli [16] it was 90%. The “herbicidal effect, Crabgrass” value in the assay on crabgrass [12] and in the assay with crabgrass [14] was 100% each time.

Consider `CC(C)N(C(=O)n1cnn(S(=O)(=O)C(C)C)c1=O)c1ccc(F)cc1Cl` [Compound 11-66], for which the “Weed suppression rate (%) Echinochloa crus-galli” value with Echinochloa crus-galli [1] and with Echinochloa crus-galli [5] was 90% each time. Moreover, the “Weed suppression rate (%) Lindemia pyxidaria” value in the assay on Lindernia pyxidaria [2] and with Lindernia pyxidaria [6] was 80% throughout. In addition, the “Weed suppression rate (%) Monochoria vaginalis” value in the assay with Monochoria vaginalis [3] and with Monochoria vaginalis [7] was 80% each time. In addition, the “Weed suppression rate (%) Scirpus juncoides” value in the assay with Scirpus juncoides [4] and in the assay on Scirpus juncoides [8] was 90% each time. In addition, the “herbicidal effect, Amaranthus viridis” value in the assay with Amaranthus viridis [9] and with Amaranthus viridis [15] was 90% in each case. For the same compound, the “herbicidal effect, Chenopodium album” value with Chenopodium album [10] and with Chenopodium album [13] was 80% throughout. Further, the “herbicidal effect, Echinochloa crus-galli” value with Echinochloa crus-galli [11] and in the assay with Echinochloa crus-galli [16] was 80% in each case. For the same compound, the “herbicidal effect, Crabgrass” value in the assay on crabgrass [12] and in the assay on crabgrass [14] was 90% each time.

For `Cc1ccc(N(C(=O)n2cnn(S(=O)(=O)C(C)C)c2=O)C(C)C)c(F)c1` [Compound 11-73], the “Weed suppression rate (%) Echinochloa crus-galli” value with Echinochloa crus-galli [1] and in the assay on Echinochloa crus-galli [5] was 90% in each case. Moreover, the “Weed suppression rate (%) Lindemia pyxidaria” value in the assay with Lindernia pyxidaria [2] and with Lindernia pyxidaria [6] was 80% each time. Also, the “Weed suppression rate (%) Monochoria vaginalis” value with Monochoria vaginalis [3] and in the assay on Monochoria vaginalis [7] was 80% in each case. Further, the “Weed suppression rate (%) Scirpus juncoides” value in the assay on Scirpus juncoides [4] and in the assay with Scirpus juncoides [8] was 90% throughout. For the same compound, the “herbicidal effect, Amaranthus viridis” value in the assay on Amaranthus viridis [9] and in the assay with Amaranthus viridis [15] was 90% throughout. For the same compound, the “herbicidal effect, Chenopodium album” value with Chenopodium album [10] and in the assay on Chenopodium album [13] was 80% throughout. The “herbicidal effect, Echinochloa crus-galli” value with Echinochloa crus-galli [11] and with Echinochloa crus-galli [16] was 80% each time. The “herbicidal effect, Crabgrass” value in the assay on crabgrass [12] and in the assay on crabgrass [14] was 90% in each case.
